Results on 4 molecules are retold here after patent US20200277571A1, “METHOD FOR AMPLIFYING CONE PHOTORECEPTORS OR ROD PHOTORECEPTORS USING DORSALIZATION SIGNAL TRANSMITTER OR VENTRALIZATION SIGNAL TRANSMITTER” (RIKEN, priority 2017, published 2020).

One assay deals with CYP26A1 gene. Description: Quantitative PCR of CYP26A1 gene expression in retinal tissue. In kind it is cell-based, human. Particulars: about day 70, 0.15 nM BMP4 or 100 nM LDN193189 from day 22. As to the method:
[1] Control group (FIG. 2a, f, k, p); according to the method described in Example 1, culture was performed up to day 70 or day 75 from the start of suspension culture and without addition. [2]+BMP group (FIG. 2b, g, 1, q); 0.15 nM BMP4 was added from day 22 from the start of suspension culture to completion of suspension culture, and cultured up to day 70 or day 75 from the start of suspension culture. [3]+Cyclopamine-KAAD group (FIG. 2c, h, m, r); 500 nM Cyclopamine-KAAD was added from day 22 from the start of suspension culture to completion of the suspension culture, and cultured up to day 70 or day 75 from the start of suspension culture. [4]+LDN193189 group (FIG. 2d, i, n, s); 100 nM LDN193189 was added from day 22 from the start of suspension culture to completion of the suspension culture, and cultured up to day 70 or day 75 from the start of suspension culture. [5]+SAG group (FIG. 2e, j, o, t); 100 nM SAG was added from day 22 from the start of suspension culture to completion of the suspension culture, and cultured up to day 70 or day 75 from the start of suspension culture.
On the other hand, using cDNA on about day 70 from the start of suspension culture, the expression level of CYP26A1 gene was analyzed. […]

For assay [1], the system named is cone photoreceptor precursor and rod photoreceptor precursor in retinal tissue produced from human ES cells. As to the kind of experiment: Immunostaining for GFP (CRX::Venus), RXR-γ and NRL of retinal tissue, day 191-192, image analysis. Type of assay: cell-based. Particulars: for proportion of rod photoreceptor precursor (Rod-like; NRL-positive) / proportion of cone photoreceptor precursor (Cone; RXR-γ-positive and NRL-negative): day 191-192, 100 nM LDN193189 or 100 nM SAG day 22 to day 100; for proportion of rod photoreceptor precursor (Rod-like; NRL-positive) / proportion of cone photoreceptor precursor (Cone; RXR-γ-positive and NRL-negative) / proportion of NRL-positive rod photoreceptor precursor among photoreceptor precursors versus Control group: 0.15 nM BMP4, 500 nM Cyclopamine-KAAD; for proportion of rod photoreceptor precursor (Rod-like; NRL-positive): Control (NUC) about 12.8%; for proportion of cone photoreceptor precursor (Cone; RXR-γ-positive and NRL-negative): Control (NUC) about 22.7%; for proportion of NRL-positive rod photoreceptor precursor among photoreceptor precursors versus Control group: 100 nM LDN193189, 100 nM SAG day 22 to day 100; for proportion of RXR-γ-positive cone photoreceptor precursor among photoreceptor precursors versus Control group: 500 nM Cyclopamine-KAAD or 100 nM SAG day 22 to day 100. As to the method:
A cell aggregate containing a retinal tissue was prepared by the method described in “Kuwahara et al. Nat Commun 2015, 19(6), 6286-” after modification in part. That is, the aforementioned cultured ES cells were individually dispersed using TrypLE Express (Invitrogen), and the individually dispersed human ES cells were suspended in 100 μL of a serum-free medium in a cell non-adhesive 96 well plate (SUMILON spheroid plate, SUMITOMO BAKELITE CO., LTD.) at 9×10^3 cells per well to allow rapid formation of aggregates, after which they were cultured at 37° C., 5% CO2. As the serum-free medium therefor, a serum-free medium obtained by adding 10% KSR, 450 μM 1-monothioglycerol, 1× Chemically defined lipid concentrate, 5 mg/mL BSA, 20 μM Y27632 to a 1:1 mixture of F-12 medium and IMDM medium was used. At 6 days after the start of suspension culture, BMP4 at a final concentration of 1.5 nM was added and suspension culture was continued. A half amount of the culture medium in the well was exchanged with the above-mentioned medium not supplemented with a BMP signal transduction pathway agonist every 3 or 4 days. A cell aggregate containing a retinal tissue at day 18 from the start of suspension culture was cultured in suspension in a serum-free medium (DMEM/F12 medium supplemented with 1% N2 supplement) containing 3 μM CHIR99021 and 5 μM SU5402 for 4 days, namely, up to day 22 from the start of suspension culture. Thereafter, suspension culture of the cell aggregate containing the retinal tissue was continued until it was appropriately used for analysis and the like. As the culture medium during this period, serum-containing media shown in the following to [3] were used and the cell aggregate was cultured under 5% CO2 conditions.
[1] day 22 to day 38 from the start of suspension culture; DMEM/F12 medium supplemented with 10% fetal calf serum, 1% N2 supplement, and 100 μM taurine. day 38 to day 60 from the start of suspension culture; a 1:3 mixed medium of DMEM/F12 medium supplemented with 10% fetal calf serum, 1% N2 supplement, and 100 μM taurine, and Neurobasal medium supplemented with 10% fetal calf serum, 2% B27 supplement, and 100 μM taurine. after day 60 from the start of suspension culture; Neurobasal medium supplemented with 10% fetal calf serum, 2% B27 supplement, and 100 μM taurine.
[1] Control group (FIG. 3a, f, k, p); according to the method described in Example 1, cultured without addition up to day 191 from the start of suspension culture. [2]+BMP group (FIG. 3b, g, 1, q); 0.15 nM BMP4 was added from day 22 to day 100 from the start of suspension culture and cultured up to day 191 from the start of suspension culture. From day 100 to day 191 from the start of suspension culture, cultured in medium described in Example 1. [3]+Cyclopamine-KAAD group (FIG. 3c, h, m, r); 500 nM Cyclopamine-KAAD was added from day 22 to day 100 from the start of suspension culture, and cultured up to day 191 from the start of suspension culture. From day 100 to day 191 from the start of suspension culture, cultured in medium described in Example 1. [4]+LDN193189 group (FIG. 3d, i, n, s); 100 nM LDN193189 was added from day 22 to day 100 from the start of suspension culture, and cultured up to day 191 from the start of suspension culture. From day 100 to day 191 from the start of suspension culture, cultured in medium described in Example 1. [5]+SAG group (FIG. 3e, j, o, t); 100 nM SAG was added from day 22 to day 100 from the start of suspension culture, and cultured up to day 191 from the start of suspension culture. From day 100 to day 191 from the start of suspension culture, cultured in medium described in Example 1. […]

Assay [2] has as its system photoreceptor precursor and cone photoreceptor precursor in retinal tissue produced from human ES cells. As to the kind of experiment: Immunostaining for CRX and TRβ2 and CRX::Venus fluorescence observation of retinal tissue, day 70-75 of suspension culture. In kind it is cell-based.

Take `c1ccc2c(-c3cnn4cc(-c5ccc(N6CCNCC6)cc5)cnc34)ccnc2c1` [LDN193189, 4-[6-(4-piperazin-1-ylphenyl)pyrazolo[1,5-a]pyrimidin-3-yl]quinoline]: the “expression of CYP26A1 gene” value with CYP26A1 gene is on record as “suppresses”. For the same molecule, in assay [1], the “proportion of rod photoreceptor precursor (Rod-like; NRL-positive)” value (from here on “proportion … (Rod-like; NRL-positive)”) is reported as “about 14.0%”; the “proportion of cone photoreceptor precursor (Cone; RXR-γ-positive and NRL-negative)” value was “about 20.0%”. Besides, in assay [1] (day 191), the “proportion of NRL-positive rod photoreceptor precursor among photoreceptor precursors versus Control group” value is recorded as “increased”.
Regarding `CC1=C2C[C@H]3[C@@H](CC=C4CC(=O)CC[C@@]43C)[C@@H]2CC[C@]12O[C@@H]1C[C@H](C)CN(CCNC(=O)CCCCCNC(=O)CCc3ccccc3)[C@H]1[C@H]2C` [Cyclopamine-KAAD], in assay [1], the “proportion … (Rod-like; NRL-positive)” value is listed as “about 11.5%”; the “proportion of cone photoreceptor precursor (Cone; RXR-γ-positive and NRL-negative)” value is “about 30.2%”. In addition, in assay [1] (day 191), the “proportion of NRL-positive rod photoreceptor precursor among photoreceptor precursors versus Control group” value is “decreased somewhat” and the “proportion of RXR-γ-positive cone photoreceptor precursor among photoreceptor precursors versus Control group” value was “can increase”. The “CRX::Venus-positive photoreceptor precursor” value in assay [1] (day 191, 500 nM Cyclopamine-KAAD day 22 to day 100) was “can be increased”.
As to `CNC1CCC(N(Cc2cccc(-c3ccncc3)c2)C(=O)c2sc3ccccc3c2Cl)CC1` (stereo not shown) [SAG], in assay [1], the “proportion … (Rod-like; NRL-positive)” value is “about 17.2%”; the “proportion of cone photoreceptor precursor (Cone; RXR-γ-positive and NRL-negative)” value is “about 12.6%”. For the same molecule, in assay [1] (day 191), the “proportion of NRL-positive rod photoreceptor precursor among photoreceptor precursors versus Control group” value is recorded as “increased” and the “proportion of RXR-γ-positive cone photoreceptor precursor among photoreceptor precursors versus Control group” value was “low”.
“BMP4: BMP protein; BMP signal transduction pathway agonist used as dorsalization signal transmitter”: the “expression of CYP26A1 gene” value with CYP26A1 gene is “promotes”. Further, the “CRX::Venus-positive cells as compared with group added with 0.15 nM BMP4” value in assay [2] (0.45 nM BMP4 from day 22) is listed as “became less”. The “CRX::Venus-positive cells as compared with group added with 0.15 nM BMP4” value in assay [2] (1.35 nM BMP4 from day 22) is given as “became less”. In assay [1], the “proportion … (Rod-like; NRL-positive)” value was “about 6.1%”; the “proportion of cone photoreceptor precursor (Cone; RXR-γ-positive and NRL-negative)” value is given as “about 31.3%”. Besides, the “proportion of NRL-positive rod photoreceptor precursor among photoreceptor precursors versus Control group” value in assay [1] (day 191) is “reduced”.
